This experiment deals with HepG2 viability, CellTiter-Glo ATP luminescence, 72 h. Kind of experiment: HepG2 cell cytotoxicity, dose response, cytotoxicity control, CellTiter-Glo luminescence, cherry-pick, set 2 (AID 743395).

Turning to `C=C1C(=O)O[C@@H]2C[C@@H](C)[C@@H]3C=CC(=O)[C@@]3(C)[C@@H](O)[C@H]12`, the AC35 was 2.99 µM. On to `C[C@H](CO)N1C[C@H](C)[C@@H](CN(C)Cc2ccc(Cl)c(Cl)c2)Oc2ccc(NC(=O)Nc3ccc(C(F)(F)F)cc3)cc2CC1=O`, for which the AC35 was 10.5 µM. As for `COc1cc(/C=C(\C#N)c2nc3ccccc3[nH]2)cc(OC)c1O`, the AC35 is 17.2 µM. The result for `Cc1nn(S(=O)(=O)c2ccc(Cl)cc2)c(C)c1Sc1ccc([N+](=O)[O-])cc1` reads 21.8 µM. In the case of `COc1cc(C2CC(=O)N(c3ccc(C)cc3)C(=O)C2)cc(OC)c1OC`, the AC35 was 10.7 µM.

As to `Clc1ccc(SCc2cc(N3CCOCC3)nc(-c3ccccn3)n2)cc1`, the AC35 was 9 µM. Take `COc1cc(NC(=O)N2CCNC2=O)cc(C(=O)Nc2cccc(C(F)(F)F)c2)c1`: the AC35 is 1.54 µM. As to `CNc1c2cccc(C)c2nc2c(C(=O)NCCN(C)C)cccc12`, the AC35 was 0.428 µM. The result for `O=C(Cc1ccccc1)N1CC(=O)N2[C@H](CO)[C@@H](c3ccc(-c4ccccc4)cc3)[C@@H]2C1` reads 18.7 µM; that for `COc1ccc(S(=O)(=O)NCc2ccccn2)cc1NC(=O)c1ccccc1F`, 18.5 µM. Regarding `C[C@H]1CN([C@@H](C)CO)S(=O)(=O)c2ccc(C#Cc3ccc(F)cc3)cc2O[C@H]1CN(C)C(=O)NC1CCCC1`, the AC35 is 19.1 µM. Under `CCOC(=O)c1c(C)[nH]c(C(=O)N/N=C\c2ccccc2O)c1C` stands 2.34 µM; under `O=c1c2ccccc2sc2c(CO)ccc(NCCN3CCCCC3)c12`, 4.82 µM; under `COc1ccc(CNC(=O)c2c(C)oc3c2C(=O)c2ccccc2C3=O)cc1`, 2.36 µM.

As to `NS(=O)(=O)c1ccc(S(=O)(=O)N(CCc2ccccc2)Cc2ccccn2)cc1`, the AC35 was 21.5 µM. Turning to `Oc1ccc2ccccc2c1/C=C/c1ccc2c(Br)cc(Br)c(O)c2n1`, the AC35 is 9.42 µM. Turning to `CC1(C(=O)NCc2ccccc2)Cc2c(-c3ccc(C(N)=O)cc3)ccnc2O1` (centres undefined), the AC35 is 13.8 µM. Under `COC(=O)/C=C/c1ccccc1S(=O)(=O)N(Cc1ccccc1)Cc1ccco1` stands 15.4 µM; under `Cc1ccc(-c2csc(Nc3ccccn3)n2)cc1`, 13 µM; under `Cc1ccc(/C=N/NC(=O)c2c(-c3ccccc3)noc2C)c(O)c1`, 18.4 µM. With `COc1ccc(C2C3=C(COC3=O)Oc3cc4c(cc32)OCO4)cc1OC` (centres undefined), the AC35 was 10.9 µM. For the compound `CN(C)CCNc1ccc2ncn3c4ccc(O)cc4c(=O)c1c23`, the AC35 is 2.3 µM. As to `O=C1NC(=Nc2ccc(O)cc2)S/C1=C/c1ccco1`, the AC35 is 11.7 µM. As to `CCOc1ccc(C(=O)COC(=O)Cc2n[nH]c(=O)c3ccccc23)cc1`, the AC35 was 19.3 µM. In the case of `Clc1ccc2c(c1)-c1ccccc1C1=NCCN12`, the AC35 is 3.06 µM. As to `COc1ccc(-c2cc(NC=O)c3ncc(-c4ccc(OC)c(OC)c4)n3c2)cc1`, the AC35 was 6.95 µM. For the compound `COc1ccc(CNS(=O)(=O)c2cc(-c3cc(C)no3)ccc2C(C)C)cc1`, the AC35 was 7.14 µM. For `CC(=O)N1CCc2cc(S(=O)(=O)N3c4ccccc4CC3C)ccc21` (centres undefined), the AC35 was 10.2 µM.

`CCOc1cc(/C=N/NC(=O)N/N=C/c2ccc(O)c(OCC)c2)ccc1O`: the AC35 is 20 µM. `COc1cc2c(c(Br)c1N)-c1cc(Br)c(N)cc1C2=O`: the AC35 was 0.431 µM. For `CC(=NNC(=S)N1CC2CCC(CC2)C1)c1cnccn1`, the AC35 was 0.171 µM. On to `O=c1[nH]c(/C=C/c2ccccc2F)nc2ccccc12`, for which the AC35 was 9.06 µM. `COc1ccc(S(=O)(=O)Nc2cccc3ccc(O)cc23)cc1`: the AC35 was 13.8 µM. `COc1ccc(-c2cc(C(F)F)n3ncc(C(=O)N4CCc5ccccc54)c3n2)cc1`: the AC35 is 9.81 µM. On to `CC1=NN(c2ccccc2)C(=O)C1N=Nc1cccc(O)c1` (centres undefined), for which the AC35 was 19 µM. For `COc1ccc(Nc2nc3cc(-c4sccc4C)sc3c(=O)n2C)cc1OC`, the AC35 is 5.88 µM. Take `Cn1cc(C(=O)N/N=C/c2ccc3c(c2)OCO3)c2ccccc21`: the AC35 is 11.2 µM. In the case of `COc1ccc([C@H]2C[C@H](O)[C@@H](n3cc(-c4ccc(F)cc4)nn3)CN2Cc2cccs2)cc1`, the AC35 is 6.12 µM. As to `N=C1/C(=C/c2cccn2CCOc2ccccc2)C(=O)N=C2SC=C(c3ccccc3)N12`, the AC35 is 19.3 µM. The result for `O=C(N/N=C/c1c(O)ccc2ccccc12)C(=O)N1CCCC1` reads 15.7 µM; that for `COc1ccc(C2=Nn3c(nnc3-c3ccccc3F)SC2)cc1OC1CCOC1` (centres undefined), 13.2 µM.

Take `COc1ccccc1N1CCN(C(=O)c2ccc(-c3ccc(Cl)cc3)o2)CC1`: the AC35 is 3.02 µM.

`NCC(=O)NNC(=O)OCC1c2ccccc2-c2ccccc21`: the AC35 is 12.7 µM.

`COc1ccccc1CNC(=O)Nc1nc(C(N)Cc2ccc(Cl)cc2)cs1` (centres undefined): the AC35 is 9.79 µM. In the case of `CCN(c1cccc(C)c1)S(=O)(=O)c1ccc(-c2cc(C)no2)s1`, the AC35 is 8.73 µM. `CC(=O)c1cccc(Nc2c3c(nc4ccccc24)CCC3)c1`: the AC35 was 17.9 µM.

Turning to `COc1ccc(OC)c(Nc2cc(C)nc3ccc(C)cc23)c1`, the AC35 was 2.93 µM.

With `COc1cc(C#Cc2ccc3cc(CCCO)oc(=O)c3c2)cc(OC)c1`, the AC35 was 6.25 µM. The result for `O=C1OCC2=C1C(c1ccc3c(c1)OCO3)c1cc3c(cc1O2)OCO3` (centres undefined) reads 3.26 µM; that for `COc1ccccc1C(=O)NC(=S)/C=C1/N(C)c2ccccc2C1(C)C`, 16 µM; that for `C/C(=N\NC(=O)c1c(Cl)c(C)nn1C)c1ccc(NC(=O)C2CCC2)cc1`, 4.43 µM. With `Oc1c(Cl)cc(CN2CCOCC2)c2cccnc12`, the AC35 was 7.67 µM. The result for `CC(=O)Oc1ccc(N2C(=O)c3cccc4c([N+](=O)[O-])ccc(c34)C2=O)cc1` reads 16.7 µM.

Take `CC(=O)NC(c1ccc(Cl)cc1)c1ccc2cccnc2c1O` (centres undefined): the AC35 is 2.14 µM. Turning to `c1coc(-c2nc3ccccc3s2)c1`, the AC35 is 7.04 µM.

On to `O=C(C[C@@H]1CC[C@H]2[C@@H](COC[C@H](O)CN2Cc2ccc3c(c2)OCO3)O1)Nc1ccc(-c2ccccc2)cc1`, for which the AC35 was 16.8 µM.

For `O[Si](CCCN1CCCCC1)(c1ccc(F)cc1)C1CCCCC1` (centres undefined), the AC35 was 10.3 µM. Consider `O=Nc1ccc(O)c2ncccc12`, for which the AC35 was 5.57 µM.

For the compound `Cc1ccc(-c2nn(-c3ccccc3)cc2C(=O)N2CCN(c3ccccn3)CC2)cc1`, the AC35 was 12.3 µM. `COc1cc(C(=O)Nc2ccc3c(c2)CCN3C(C)=O)cc(OC)c1OC`: the AC35 was 3.94 µM.

In the case of `O=C1CN(S(=O)(=O)Cc2ccccc2)C[C@@H]2[C@@H](c3ccc(C#Cc4cccc(F)c4)cc3)[C@@H](CO)N12`, the AC35 was 7.38 µM. Turning to `N#Cc1c(-c2ccc(F)cc2)c(-c2ccc(F)cc2)nn(CCO)c1=O`, the AC35 is 4.03 µM. Regarding `CCCC(=O)Nc1ccc2c(c1)nc(CN1CCN(C(=O)OCC)CC1)n2CC`, the AC35 was 18.9 µM. With `COc1ccc(O)c(/C=N/NC(=O)c2ccc(N3CCCC3=O)cc2)c1`, the AC35 is 2.93 µM.

On to `Brc1ccc2c(c1)C(C1=NCCN1)c1ccccc1CS2` (centres undefined), for which the AC35 was 18.3 µM. On to `COc1ccccc1NC1=C(NC(C)=O)C(=O)c2ccccc2C1=O`, for which the AC35 is 12.2 µM. `CCN1CCN(c2cc(C)c3cc(NC(=O)c4ccc(OC)c(OC)c4)ccc3n2)CC1`: the AC35 was 12.4 µM.

Take `O=C(OCc1ccc(Br)cc1)c1cc([N+](=O)[O-])ccc1N1CCOCC1`: the AC35 is 10.8 µM. On to `CCCn1c(CN2CCN(C(=O)OCC)CC2)nc2cc(NC(=O)CC)ccc21`, for which the AC35 is 18.9 µM.

In the case of `CC1(C)CCN2CCC(C)(C)c3c(O)ccc1c32`, the AC35 was 6.54 µM. The result for `c1ccc2c(c1)C1=NCCN1c1ccccc1-2` reads 3.01 µM; that for `CC(C)C[C@H]1CN([C@@H](Cc2ccc(O)cc2)CN2CCC[C@H]2CN2C(=O)C(=O)NC[C@@H]2Cc2ccccc2)C(=O)C(=O)N1CC1CCCCC1`, 15 µM; that for `CCOC(=O)c1sc(Nc2nc(C)cc(C)n2)nc1C`, 11.3 µM. Turning to `COc1cc(OC)cc(C(=O)OCC(=O)NC(c2ccccc2)c2ccccc2)c1`, the AC35 was 16.2 µM. With `COc1ccc2sc3cccc(NCCN(C)C)c3c(=O)c2c1`, the AC35 is 10.4 µM. In the case of `O=C(CCCl)Nc1nc2c(s1)CCc1ccccc1-2`, the AC35 is 20.6 µM. On to `Nc1[nH]c(C(=O)c2ccccc2)c(-c2ccccc2C(F)(F)F)c1C(=O)NCCc1c[nH]c2ccccc12`, for which the AC35 was 22.4 µM. `COc1cc(/C=C2/SC(=S)N(Cc3ccccc3)C2=O)cc(Cl)c1O`: the AC35 is 12.5 µM. Under `Cc1ccc(-c2ccc3c(c2)O[C@H](CN(C)Cc2ccccn2)[C@@H](C)CN([C@H](C)CO)S3(=O)=O)cc1` stands 13.8 µM; under `COc1ccc2c3c([nH]c2c1)[C@@H](CO)N(C(=O)C1CCOCC1)CC31CCN(Cc2cccc(F)c2)CC1`, 1.04 µM; under `c1ccc(CCNc2nc(-c3ccccn3)nc3ccccc23)cc1`, 4.46 µM.

For `O=C(Nc1cccc(F)c1)N1CCCCN2[C@@H](CO)[C@H](c3ccc(C#Cc4ccccc4)cc3)[C@@H]2C1`, the AC35 was 9.45 µM. Regarding `COc1ccc2c(c1)sc(N)[n+]2Cc1cc(C)cc2cccnc12`, the AC35 is 12.4 µM. For `CC(=O)Nc1ccc(S(=O)(=O)NC2=C(N3CCN(Cc4ccccc4)CC3)C(=O)c3ccccc3C2=O)cc1`, the AC35 is 17.1 µM. The result for `Cc1ccc(C(=O)NC(=S)NNC(=O)c2ccccc2O)cc1` reads 17.2 µM; that for `COc1ccccc1NC(=O)CSc1ccc(-c2ccccn2)nn1`, 20.4 µM. In the case of `COc1ccc(/C=N/NC(=S)Nc2ccccc2[N+](=O)[O-])cc1O`, the AC35 was 14.4 µM. As for `CC(C)(C)N(Cc1ccccc1)C(=O)c1cc2ccccc2o1`, the AC35 was 16.1 µM. As to `N#Cc1ccc(-c2cccs2)nc1SCc1cccnc1`, the AC35 is 0.671 µM.

With `CCCCNc1c(-c2ccc(SC(C)CC)c(OC)c2)nc2ccc(C)cn12` (centres undefined), the AC35 is 13.6 µM. As to `C[C@H](CO)N1C[C@H](C)[C@H](CN(C)C(=O)NC2CCCCC2)Oc2cc(C#Cc3cccc(F)c3)ccc2S1(=O)=O`, the AC35 is 10.9 µM. `CCN(CC)CCCNc1nc2ccccc2c2[nH]c3ccc(OC)cc3c12`: the AC35 was 2.39 µM. As for `CCc1ccc(-c2nc(C(N)=O)c3[nH]c(=O)n(-c4ccccc4OC)c3n2)cc1`, the AC35 is 9.05 µM. With `Cn1c(C(=O)c2ccccc2[N+](=O)[O-])nc2ccccc21`, the AC35 was 14.3 µM.

Values taken from PubChem BioAssay AID743395 (Broad Institute, 2014).
